One assay concerns the target CK1δ (Homo sapiens (Human), UniProt P48730). Put plainly: CK1δ kinase assay (Caliper LABCHIP electrophoretic separation of fluoresceinated peptide substrate and product). Type of assay: biochemical. The following applies: 200 pM enzyme, 50 μM ATP, 22 hours at room temperature. As to the method: (§1) CK1ε and CK1δ Kinase Assays
(§2) The kinase assay was performed in V-bottom 384-well plates. […] The reaction was incubated at room temperature for 22 hours and terminated by adding 45 μl of 35 mM EDTA to each sample. The reaction mixture was analyzed on the Caliper LABCHIP®3000 (Caliper, Hopkinton, Mass.) by electrophoretic separation of the unphosphorylated substrate and phosphorylated product. […] Compounds were dissolved at 10 mM in dimethylsulfoxide (DMSO) and evaluated at eleven concentrations. IC50 values were derived by non-linear regression analysis.

Another assay deals with CK1ε (Homo sapiens (Human), UniProt P49674). Put plainly: CK1ε kinase assay (Caliper LABCHIP electrophoretic separation of fluoresceinated peptide substrate and product). Type of assay: biochemical. The conditions noted are these: 200 pM enzyme, 50 μM ATP, 22 hours at room temperature. As to the method:
as §1, §2

The structures appear in SMILES notation. pIC50: −log10 of the molar value.

Sequence of CK1ε (P49674 whole entry): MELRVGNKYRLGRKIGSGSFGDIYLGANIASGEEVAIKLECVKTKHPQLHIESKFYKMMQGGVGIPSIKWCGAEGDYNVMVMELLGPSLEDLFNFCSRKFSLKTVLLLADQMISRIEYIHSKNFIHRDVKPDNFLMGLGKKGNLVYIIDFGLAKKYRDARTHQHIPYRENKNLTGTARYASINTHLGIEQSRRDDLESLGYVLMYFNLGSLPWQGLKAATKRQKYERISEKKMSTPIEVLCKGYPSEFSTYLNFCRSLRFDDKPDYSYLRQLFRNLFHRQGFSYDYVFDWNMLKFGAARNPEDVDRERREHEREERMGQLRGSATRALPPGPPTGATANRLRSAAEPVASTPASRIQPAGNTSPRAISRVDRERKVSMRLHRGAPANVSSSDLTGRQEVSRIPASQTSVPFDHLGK
Sequence of CK1δ (P48730 whole entry): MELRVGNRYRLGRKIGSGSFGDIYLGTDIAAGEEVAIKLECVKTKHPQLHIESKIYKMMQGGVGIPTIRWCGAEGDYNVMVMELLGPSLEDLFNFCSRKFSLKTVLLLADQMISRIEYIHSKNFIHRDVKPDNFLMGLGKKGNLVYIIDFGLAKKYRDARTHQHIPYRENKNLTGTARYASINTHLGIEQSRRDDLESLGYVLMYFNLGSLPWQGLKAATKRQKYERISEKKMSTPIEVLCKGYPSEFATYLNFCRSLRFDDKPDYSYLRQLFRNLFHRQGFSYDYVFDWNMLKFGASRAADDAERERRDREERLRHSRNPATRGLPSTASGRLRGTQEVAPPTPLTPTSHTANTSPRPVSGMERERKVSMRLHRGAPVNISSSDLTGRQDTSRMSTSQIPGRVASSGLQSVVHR

In the case of `CN1CCC(n2cnc(-c3ccc(F)cc3)c2-c2ccc3nc(NC(=O)c4ccncc4)cn3n2)CC1` [Compound 2], the negative-log IC50 (pIC50) at CK1δ is 8.60; against CK1ε, 8.61. Turning to `O=C(Nc1cn2nc(-c3c(-c4ccc(F)cc4)ncn3C3CCN(Cc4ccon4)CC3)ccc2n1)c1ccncc1` [Compound 3, N-(6-(4-(4-fluorophenyl)-1-(1-(isoxazol-3-ylmethyl)piperidin-4-yl)-1H-imidazol-5-yl)imidazo[1,2-b]pyridazin-2-yl)isonicotinamide], the pIC50 against CK1δ was 9.51; against CK1ε, 9.53. Regarding `O=C(Nc1cn2nc(-c3c(-c4ccc(F)cc4)ncn3C3CCN(CCC(F)(F)F)CC3)ccc2n1)c1ccncc1` [Compound 4, N-(6-(4-(4-fluorophenyl)-1-(1-(3,3,3-trifluoropropyl)piperidin-4-yl)-1H-imidazol-5-yl)imidazo[1,2-b]pyridazin-2-yl)isonicotinamide], the negative-log IC50 (pIC50) against CK1δ is 9.52; against CK1ε it was 8.65. The matching figures for `O=C(Nc1cn2nc(-c3c(-c4ccc(F)cc4)ncn3C3CCN(C(=O)c4ccon4)CC3)ccc2n1)c1ccncc1` [Compound 5, N-(6-(4-(4-fluorophenyl)-1-(1-(isoxazole-3-carbonyl)piperidin-4-yl)-1H-imidazol-5-yl)imidazo[1,2-b]pyridazin-2-yl)isonicotinamide]: 9.42 and 8.85. Take `O=C(Nc1cn2nc(-c3c(-c4ccc(F)cc4)ncn3C3CCN(C(=O)CC(F)(F)F)CC3)ccc2n1)c1ccncc1` [Compound 6, N-(6-(4-(4-fluorophenyl)-1-(1-(3,3,3-trifluoropropanoyl)piperidin-4-yl)-1H-imidazol-5-yl)imidazo[1,2-b]pyridazin-2-yl)isonicotinamide]: the negative-log IC50 (pIC50) is 9.58 against CK1δ and 8.93 against CK1ε. On to `O=C(Nc1cn2nc(-c3c(-c4ccc(F)cc4)ncn3C3CCNCC3)ccc2n1)c1ccnc(F)c1` [Compound 9, 2-fluoro-N-(6-(4-(4-fluorophenyl)-1-(piperidin-4-yl)-1H-imidazol-5-yl)imidazo[1,2-b]pyridazin-2-yl)isonicotinamide], for which the negative-log IC50 (pIC50) on CK1δ was 9.04; against CK1ε, 9.17.

For `O=C(Nc1cn2nc(-c3c(-c4ccc(F)cc4)ncn3C3CCN(CCC(F)(F)F)CC3)ccc2n1)c1ccnc(F)c1` [Compound 10, 2-fluoro-N-(6-(4-(4-fluorophenyl)-1-(1-(3,3,3-trifluoropropyl)piperidin-4-yl)-1H-imidazol-5-yl)imidazo[1,2-b]pyridazin-2-yl)isonicotinamide], the negative-log IC50 (pIC50) against CK1δ is 9.07; at CK1ε, 8.64. As to `CN1CCC(n2cnc(-c3ccc(F)cc3)c2-c2ccc3nc(NC(=O)c4ccnc(F)c4)cn3n2)CC1` [Compound 11], the pIC50 at CK1δ is 9.07; against CK1ε it was 9.18. As for `O=C(Nc1cn2nc(-c3c(-c4ccc(F)cc4)ncn3C3CCN(Cc4ccon4)CC3)ccc2n1)c1ccnc(F)c1` [Compound 12], the pIC50 was 9.07 at CK1δ and 9.55 against CK1ε. For `O=C(Nc1cn2nc(-c3c(-c4ccc(F)cc4)ncn3C3CCN(CCO)CC3)ccc2n1)c1ccnc(F)c1` [Compound 13, 2-fluoro-N-(6-(4-(4-fluorophenyl)-1-(1-(2-hydroxyethyl)piperidin-4-yl)-1H-imidazol-5-yl)imidazo[1,2-b]pyridazin-2-yl)isonicotinamide], the negative-log IC50 (pIC50) at CK1δ was 9.67; on CK1ε, 9.21.

Turning to `O=C(Nc1cn2nc(-c3c(-c4ccc(F)cc4)ncn3C3CCN(C(=O)c4cnon4)CC3)ccc2n1)c1ccnc(F)c1` [Compound 14, N-(6-(1-(1-(1,2,5-oxadiazole-3-carbonyl)piperidin-4-yl)-4-(4-fluorophenyl)-1H-imidazol-5-yl)imidazo[1,2-b]pyridazin-2-yl)-2-fuoroisonicotinamide], the results for the negative logarithm of the IC50 (pIC50) at CK1δ and on CK1ε were 9.20 and 8.41, respectively. With `O=C(Nc1cn2nc(-c3c(-c4ccc(F)cc4)ncn3C3CCN(Cc4ccc(F)cc4)CC3)ccc2n1)c1ccnc(F)c1` [Compound 15, 2-fluoro-N-(6-(1-(1-(4-fluorobenzyI)piperidin-4-yl)-4-(4-fluorophenyl)-1H-imidazol-5-yl)imidazo[1,2-b]pyridazin-2-yl)isonicotinamide], the negative logarithm of the IC50 (pIC50) at CK1δ is 9.67; against CK1ε, 7.85. As to `O=C(Nc1cn2nc(-c3c(-c4ccc(F)cc4)ncn3C3CCN(Cc4ccncc4)CC3)ccc2n1)c1ccnc(F)c1` [Compound 16, 2-fluoro-N-(6-(4-(4-fluorophenyl)-1-(1-(pyridin-4-ylmethyl)piperidin-4-yl)-1H-imidazol-5-yl)imidazo[1,2-b]pyridazin-2-yl)isonicotinamide], the pIC50 at CK1δ was 9.53; at CK1ε it was 8.51. For the compound `O=C(Nc1cn2nc(-c3c(-c4ccc(F)cc4)ncn3C3CCN(Cc4cocn4)CC3)ccc2n1)c1ccnc(F)c1` [Compound 17, 2-fluoro-N-(6-(4-(4-fluorophenyl)-1-(1-(oxazol-4-ylmethyl)piperidin-4-yl)-1H-imidazol-5-yl)imidazo[1,2-b]pyridazin-2-yl)isonicotinamide], the figures for the negative logarithm of the IC50 (pIC50) at CK1δ and against CK1ε were 8.67 and 7.66, respectively.

With `O=C(Nc1cn2nc(-c3c(-c4ccc(F)cc4)ncn3C3CCN(Cc4ncc[nH]4)CC3)ccc2n1)c1ccnc(F)c1` [Compound 18, N-(6-(1-(1-((1H-imidazol-2-yl)methyl)piperidin-4-yl)-4-(4-fluorophenyl)-1H-imidazol-5-yl)imidazo[1,2-b]pyridazin-2-yl)-2-fluoroisonicotinamide], the results for the pIC50 at CK1δ and against CK1ε were 9.59 and 9.22, respectively.

Turning to `O=C(Nc1cn2nc(-c3c(-c4ccc(F)cc4)ncn3C3CCN(Cc4cc[nH]n4)CC3)ccc2n1)c1ccnc(F)c1` [Compound 20, N-(6-(1-(1-((1H-pyrazol-3-yl)methyl)piperidin-4-yl)-4-(4-fluorophenyl)-1H-imidazol-5-yl)imidazo[1,2-b]pyridazin-2-yl)-2-fluoroisonicotinamide], the results for the negative logarithm of the IC50 (pIC50) at CK1δ and at CK1ε were 9.55 and 8.75, respectively.

As to `Cc1nn(C)cc1CN1CCC(n2cnc(-c3ccc(F)cc3)c2-c2ccc3nc(NC(=O)c4ccnc(F)c4)cn3n2)CC1` [Compound 21], the pIC50 is 9.77 on CK1δ and 8.26 at CK1ε. With `O=C(Nc1cn2nc(-c3c(-c4ccc(F)cc4)ncn3C3CCN(Cc4c[nH]cn4)CC3)ccc2n1)c1ccnc(F)c1` [Compound 22], the pIC50 against CK1δ is 10.00; against CK1ε, 8.89. Taken in the same sequence, the figures for `O=C(Nc1cn2nc(-c3c(-c4ccc(F)cc4)ncn3C3CCN(CCN4CCOCC4)CC3)ccc2n1)c1ccnc(F)c1` [Compound 23, 2-fluoro-N-(6-(4-(4-fluorophenyl)-1-(1-(2-morpholinoethyl)piperidin-4-yl)-1H-imidazol-5-yl)imidazo[1,2-b]pyridazin-2-yl)isonicotinamide] were 9.74 and 9.17. With `CSCCCN1CCC(n2cnc(-c3ccc(F)cc3)c2-c2ccc3nc(NC(=O)c4ccnc(F)c4)cn3n2)CC1` [Compound 26, 2-fluoro-N-(6-(4-(4-fluorophenyl)-1-(1-(3-(methylthio)propyl)piperidin-4-yl)-1H-imidazol-5-yl)imidazo[1,2-b]pyridazin-2-yl)isonicotinamide], the pIC50 against CK1δ was 9.35; against CK1ε, 8.65.

In the case of `Cn1ccnc1CN1CCC(n2cnc(-c3ccc(F)cc3)c2-c2ccc3nc(NC(=O)c4ccnc(F)c4)cn3n2)CC1` [Compound 27, 2-fluoro-N-(6-(4-(4-fluorophenyl)-1-(1-((1-methyl-1H-imidazol-2-yl)methyl)piperidin-4-yl)-1H-imidazol-5-yl)imidazol[1,2-b]pyridazin-2-yl)isonicotinamide], the negative-log IC50 (pIC50) against CK1δ was 9.58; on CK1ε it was 8.95. Turning to `O=C(Nc1cn2nc(-c3c(-c4ccc(F)cc4)ncn3C3CCN(CC4CC4)CC3)ccc2n1)c1ccnc(F)c1` [Compound 28, N-(6-(1-(1-(cyclopropylmethyl)piperidin-4-yl)-4-(4-fluorophenyl)-1H-imidazol-5-yl)imidazo[1,2-6]pyridazin-2-yl)-2-fluoroisonicotinamide], the figures for the pIC50 against CK1δ and at CK1ε were 9.68 and 8.90, respectively. `O=C(Nc1cn2nc(-c3c(-c4ccc(F)cc4)ncn3C3CCN(C(=O)C4CC(F)(F)C4)CC3)ccc2n1)c1ccnc(F)c1` [Compound 67, N-(6-(1-(1-(3,3-difluorocyclobutanecarbonyl)piperidin-4-yl)-4-(4-fluorophenyl)-1H-imidazol-5-yl)imidazo[1,2-b]pyridazin-2-yl)-2-fluoroisonicotinamide] gave a pIC50 against CK1δ of 9.94. Compound `O=C(Nc1cn2nc(-c3c(-c4ccc(F)cc4)ncn3C3CCN(C(=O)C4CCC4)CC3)ccc2n1)c1ccnc(F)c1` [Compound 68, N-(6-(1-(1-(cyclobutanecarbonyl)piperidin-4-yl)-4-(4-fluorophenyl)-1H-imidazol-5-yl)imidazo[1,2-b]pyridazin-2-yl)-2-fluoroisonicotinamide] showed a pIC50 against CK1δ of 9.71. `O=C(Nc1cn2nc(-c3c(-c4ccc(F)cc4)nc4ccccn34)ccc2n1)C1CC1` [Compound 185, N-(6-(2-(4-fluorophenyl)imidazo[1,2-a]pyridin-3-yl)imidazo[1,2-b]pyridazin-2-yl)cyclopropanecarboxamide] gave a negative-log IC50 (pIC50) against CK1δ of 8.42. At CK1δ, `O=C(Nc1cn2nc(-c3c(-c4ccc(Cl)cc4)ncn3CC(F)F)ccc2n1)c1ccnc(F)c1` [Compound 244, N-(6-(4-(4-chlorophenyl)-1-(2,2-difluoroethyl)-1H-imidazol-5-yl)imidazo[1,2-b]pyridazin-2-yl)-2-fluoroisonicotinamide] gave a pIC50 of 9.69. On the same count and under the same terms, to `Cc1nc(-c2ccc(F)cc2)c(-c2ccc3nc(NC(=O)C(=O)c4ccccc4)cn3n2)n1C` [Compound 317, N-(6-(4-(4-fluorophenyl)-1,2-dimethyl-1H-imidazol-5-yl)imidazo[1,2-b]pyridazin-2-yl)-2-oxo-2-phenylacetamide] belongs 8.92.

As usually defined, the pIC50 is the negative decadic logarithm of the IC50, by convention in mol/L.
